Columns and labels:
[1] = molecular target: T1, SpCas9 (Streptococcus pyogenes serotype M1, UniProt Q99ZW2); test: In vitro DNA cleavage assay, SpCas9; type: biochemical; conditions: 0-40 μM
Protocol: First, Cas9:gRNA complex (30 nM Cas9 (NEB) and 36 nM eGFP targeting gRNA) was formed by mixing each component at a 1:1.2 (Cas9:gRNA) molar ratio and incubating at room temperature for 10 minutes. BRD7586 at doses 0, 5, 10, 20, 30, 40 μM were incubated with Cas9:gRNA complex at 37° C. for 30 minutes at 700 rpm. PCR amplified target eGFP DNA (2 nM) was added after 30 minutes of compound incubation and the mixture was incubated at 37° C. for 30 minutes at 700 rpm. Proteinase K (5 μL) was added and incubated at 37° C. for 30 minutes at 700 rpm to digest the Cas9. The resulting mixtures were purified PCR mini elute kit (Qiagen) and the eluted DNA was quantified by Qubit HS DNA quantification method. Equal amounts of DNA samples were run on a 1% agarose E-gels (invitrogen) for 7 minutes. Images were obtained by an Azure 600 (Azure Biosystem) and quantification of band intensities were performed by ImageJ based analysis.

[2] = Plasma stability assay; type: in vitro ADME; conditions: 2 μM, 50% mouse plasma in PBS, 2 h
Protocol: The stability of the compound in mouse plasma was assessed following a reported protocol.^50 BRD7586 (2 μM) was incubated with 50% mouse plasma (K2 EDTA, BioIVT) in PBS for 2 h in duplicate. Propantheline was included as a control.

[3] = molecular target: T1, SpCas9; test: Targeted deep sequencing of indels (eGFP, EMX1, FANCF, VEGFA); type: cell-based
Protocol: U2OS.eGFP.PEST cells were nucleofected as described above for the eGFP disruption assay, plated in a 24-well plate at the density of 150,000 cells per well, and incubated with BRD7586 for 24 h. Then, the genomic DNA was extracted using DNeasy Blood & Tissue Kit (Qiagen). HEK293T cells were plated in a 24-well plate at the density of 100,000 cells per well. The next day, cells were transfected with 500 ng of SpCas9 plasmid and 250 ng of EMX1-, VEGFA-, or FANCF-targeting gRNA plasmid using Lipofectamine 3000 (Invitrogen). Indicated amount of compound was added at the time of transfection, cells were incubated for 24 h or 48 h, and genomic DNA was extracted. Next-generation sequencing (NGS) samples were prepared using a two-step PCR protocol. NGS libraries were quantified using KAPA Library Quantification Kit (Roche) and diluted to 4 nM. Sequencing of the pooled library was performed using MiSeq Reagent Kit v2 (Illumina). The percentage of indel in the demultiplexed sequence files was analyzed using the CRISPResso2 software from the Pinello Lab.^49

[4] = molecular target: T1, SpCas9; test: HiBiT knock-in assay, SpCas9, HEK293T cells; type: cell-based
Source text: Primary and secondary screening. The primary screen assayed a selection of unique chemical scaffolds derived from commercially available compounds and known bioactive molecular libraries (Table 7). Auto-fluorescent compounds were removed by a counter screen. Overall, the CAA was used to assay 122,409 small molecules with over 2,500 unique chemical scaffolds (FIG. 64F, Table 7). Of these compounds, 547 were selected as hits (Z score >3 in both replicates) for testing in orthogonal cell-based secondary assays. Hits were tested in duplicate in an eGFP disruption assay, wherein U2OS.eGFP.PEST cells^33 transfected with SpCas9 plasmid and eGFP-targeting gRNA plasmid were incubated with 20 μM of the compounds. In this assay, any compound that inhibited SpCas9 would rescue the loss of eGFP fluorescence. Here, toxic and auto-fluorescent compounds with a high GFP signal in cells were removed as false positives. […] Next, Applicants tested the 15 compounds in a luminescence-based gain-of-signal HiBiT knock-in assay, which involves SpCas9-mediated homology-directed tagging of GAPDH with a short peptide that luminesces upon complementation with a subunit derived from nanoluciferase.^34 Complementarily, the eGFP-disruption assay is fluorescence-based and involves error-prone DNA repair. As a counter-screen to remove false positives caused by cell death (viability <80%), the cell viability was measured after incubation.
Approximately 400,000 HEK293T cells were nucleofected with 400 ng of SpCas9 plasmid, 40 ng of GAPDH-targeting gRNA plasmid, and 40 pmol of single-strand oligodeoxynucleotide (ssODN) using SF Cell Line 4D-Nucleofector X Kit (Lonza) following the pulse program of DS-150. For RNP-based genome editing, 10 pmol of Cas9 and 12 pmol of gRNA were mixed and incubated for 5 min. Then, 20 pmol of ssODN was added. Cells were nucleofected with the resulting mixture using the same pulse program. Cells were then transferred to a 96-well plate at the density of 35,000 cells per well, and incubated with indicated amount of compounds for 24 h. Cell viability was measured using PrestoBlue reagent (Thermo) with a SpectraMax M5 (Molecular Devices) at the excitation and emission wavelength of 544 nm and 590 nm, respectively. Next, luminescence measurement was performed using the Nano-Glo HiBiT Lytic Detection System (Promega) according to the manufacturer's protocol with an EnVision Multilabel Plate Reader (PerkinElmer) at the integration time of 0.5 s per well. The resulting luminescence signals were normalized based on the cell viability.^34

T1 sequence (Q99ZW2 whole entry): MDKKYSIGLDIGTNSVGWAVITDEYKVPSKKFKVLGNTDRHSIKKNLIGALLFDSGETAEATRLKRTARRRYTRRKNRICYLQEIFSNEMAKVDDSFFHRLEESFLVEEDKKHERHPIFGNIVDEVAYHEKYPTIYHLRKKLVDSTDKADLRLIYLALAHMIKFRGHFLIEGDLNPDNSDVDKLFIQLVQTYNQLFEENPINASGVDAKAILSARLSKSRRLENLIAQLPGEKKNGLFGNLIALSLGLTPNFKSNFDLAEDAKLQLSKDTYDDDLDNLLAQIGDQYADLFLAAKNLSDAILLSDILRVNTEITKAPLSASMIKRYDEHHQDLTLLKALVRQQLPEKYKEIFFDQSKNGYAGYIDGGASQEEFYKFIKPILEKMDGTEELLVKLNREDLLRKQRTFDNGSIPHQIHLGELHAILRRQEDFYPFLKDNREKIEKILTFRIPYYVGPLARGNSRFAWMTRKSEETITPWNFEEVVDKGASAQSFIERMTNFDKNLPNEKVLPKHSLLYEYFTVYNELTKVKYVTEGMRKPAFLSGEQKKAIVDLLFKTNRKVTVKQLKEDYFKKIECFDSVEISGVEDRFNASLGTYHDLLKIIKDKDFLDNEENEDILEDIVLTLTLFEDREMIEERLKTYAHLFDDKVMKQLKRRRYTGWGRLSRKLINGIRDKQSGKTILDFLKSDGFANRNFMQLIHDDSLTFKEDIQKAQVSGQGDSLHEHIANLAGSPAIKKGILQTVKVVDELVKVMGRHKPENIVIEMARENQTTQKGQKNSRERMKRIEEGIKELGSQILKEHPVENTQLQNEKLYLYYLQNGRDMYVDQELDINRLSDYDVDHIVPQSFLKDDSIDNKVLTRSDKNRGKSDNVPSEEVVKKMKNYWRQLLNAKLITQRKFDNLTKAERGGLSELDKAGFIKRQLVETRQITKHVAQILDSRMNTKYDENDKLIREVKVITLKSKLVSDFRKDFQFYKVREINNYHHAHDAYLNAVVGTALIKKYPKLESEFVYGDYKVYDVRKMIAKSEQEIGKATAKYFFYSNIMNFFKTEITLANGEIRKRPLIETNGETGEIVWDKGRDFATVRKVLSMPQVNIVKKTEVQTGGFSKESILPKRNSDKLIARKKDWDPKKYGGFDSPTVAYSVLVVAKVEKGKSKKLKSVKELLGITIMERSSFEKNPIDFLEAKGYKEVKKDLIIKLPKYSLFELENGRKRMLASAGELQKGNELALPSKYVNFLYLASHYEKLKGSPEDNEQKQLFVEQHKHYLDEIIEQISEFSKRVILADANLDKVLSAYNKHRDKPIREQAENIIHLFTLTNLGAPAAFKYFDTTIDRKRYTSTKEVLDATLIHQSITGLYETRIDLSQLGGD

O=C(CCS(=O)(=O)c1ccc(Cl)cc1)Nc1nc(-c2ccncc2)cs1 [BRD7586]
Inhibition of SpCas9 in in vitro DNA cleavage assay [1]: dose-dependent inhibition
Stability in mouse plasma [2]: 40%
Specificity of SpCas9 (on-target versus off-target ratio) ([3]; HEK293T, EMX1, FANCF or VEGFA, 48 h): enhanced the specificity of SpCas9
Inhibition of indel activity by next-generation sequencing ([3]; multiple genomic loci): inhibited the indel activity of SpCas9 at multiple genomic loci
EC50 ([4]; EC50 in HiBit knockin assay, HEK293T, SpCas9 plasmid, sgRNA plasmid and ssODN, 0.06 uM to 20 uM, 24 h (FIG. 44D)): 5.04 µM
EC50 ([4]; EC50 in the HiBiT knock-in assay, from three independent experiments): 5.7 ± 0.36 µM
